The source of these data is ChEMBL document CHEMBL1121768, “Synthesis and platelet aggregation inhibitory activity of 4,5-bis(aryl)-2-substituted-thiazoles” (J Med Chem, 1981).

Molecules are shown by their SMILES. ≈ marks a conversion by molar mass, not a printed value.

Common to all, as to type: functional
The species named for one assay is Homo sapiens. The assay is described as follows: In vitro inhibition of collagen-induced platelet aggregation in human platelet rich plasma.
The species entered for assay [1] is Cavia porcellus. The assay is described as follows: In vitro inhibition of collagen-induced platelet aggregation in guinea pig platelet rich plasma.
Assay [2] relates to Cavia porcellus. The assay is described as follows: Percent inhibition of platelet aggregation following oral administration to guinea pigs at a dose of 1 mg/kg.
Assay [3] deals with Cavia porcellus. In words: Percent inhibition of platelet aggregation following oral administration to guinea pigs at a dose of 5 mg/kg.
The subject of assay [4] is Cavia porcellus. In words: Percent inhibition of platelet aggregation following oral administration to guinea pigs at a dose of 10 mg/kg.
Assay [5] has as its system Cavia porcellus. The assay is described as follows: Percent inhibition of platelet aggregation at 8 hours following oral administration to guinea pigs at 5 mg/kg.
Assay [6] relates to Cavia porcellus. In words: Percent inhibition of platelet aggregation following oral administration to guinea pigs at a dose of 0.1 mg/kg.
Assay [7] deals with Cavia porcellus. In words: Percent inhibition of platelet aggregation at 24 hours following oral administration to guinea pigs at 5 mg/kg.
Assay [8] concerns Cavia porcellus. In words: Percent inhibition of platelet aggregation at 0 hours following oral administration to guinea pigs at 5 mg/kg.
Assay [9] concerns Cavia porcellus. In words: Percent inhibition of platelet aggregation following oral administration to guinea pigs at a dose of 0.5 mg/kg.
For assay [10], the system named is Cavia porcellus. The assay is described as follows: Percent inhibition of platelet aggregation at 16 hours following oral administration to guinea pigs at 5 mg/kg.
The test system of assay [11] is Cavia porcellus. The assay is described as follows: Percent inhibition of platelet aggregation at 12 hours following oral administration to guinea pigs at 5 mg/kg.
For assay [12], the system named is Cavia porcellus. The assay is described as follows: Percent inhibition of platelet aggregation at 2 hours following oral administration to guinea pigs at 5 mg/kg.
Assay [13] deals with Cavia porcellus. The assay is described as follows: Percent inhibition of platelet aggregation at 4 hours following oral administration to guinea pigs at 5 mg/kg.

On to `COc1ccc(-c2nc(CCO)sc2-c2ccc(OC)cc2)cc1`, for which the values for the IC50 in the assay listed under Homo sapiens and in the assay filed under Cavia porcellus [1] were 0.00032 µg/mL (≈ 0.000937 µM) and 0.0032 µg/mL (≈ 0.00937 µM), respectively. This compound displayed an inhibition in vivo at 1 mg/kg in the assay with Cavia porcellus [2] of 9%. For the same compound, the inhibition in vivo at 5 mg/kg in the assay with Cavia porcellus [3] came to 79%. The same compound returned an inhibition in vivo at 10 mg/kg in the assay on Cavia porcellus [4] of 100%.

Turning to `FC(F)(F)c1nc(-c2ccccc2)c(-c2ccccc2)s1`, the half-inhibitory concentration (IC50) in the assay filed under Homo sapiens was found to be 0.32 µg/mL (≈ 1.05 µM).

Consider `COc1ccc(-c2nc(C(C)C)sc2-c2ccc(OC)cc2)cc1`, for which the values for the half-inhibitory concentration (IC50) in the assay filed under Homo sapiens and in the assay listed under Cavia porcellus [1] were 0.0032 µg/mL (≈ 0.00943 µM) and 0.01 µg/mL (≈ 0.0295 µM), respectively. In addition, at 1 mg/kg the inhibition in vivo with Cavia porcellus [2] was 6%. Also, 5 mg/kg produced 85% inhibition in vivo with Cavia porcellus [3]. This compound displayed an inhibition in vivo at 10 mg/kg in the assay on Cavia porcellus [4] of 100%.

In the case of `COC(=O)C(C)(C)c1nc(-c2ccc(OC)cc2)c(-c2ccc(OC)cc2)s1`, the values for the concentration for half-maximal inhibition (IC50) in the assay filed under Homo sapiens and in the assay listed under Cavia porcellus [1] were 0.0032 µg/mL (≈ 0.00805 µM) and 0.01 µg/mL (≈ 0.0252 µM), respectively. For the same compound, the inhibition in vivo at 1 mg/kg in the assay on Cavia porcellus [2] was 27%. Also, in the assay on Cavia porcellus [3], the inhibition in vivo at 5 mg/kg was found to be 100%. In the assay with Cavia porcellus [4], this compound gave an inhibition in vivo at 10 mg/kg of 100%.

The compound `FC(F)(F)c1nc(-c2ccc(Cl)cc2)c(-c2ccc(Cl)cc2)s1` displayed a 50% inhibitory concentration (IC50) in the assay filed under Homo sapiens of 0.032 µg/mL (≈ 0.0855 µM).

With `COc1ccc(-c2nc(C)sc2-c2ccc(OC)cc2)cc1`, it took 0.00032 µg/mL (≈ 0.00103 µM) to reach half-maximal inhibition in the assay filed under Homo sapiens (IC50).

In the case of `COc1ccc(-c2nc(CC(N)=O)sc2-c2ccc(OC)cc2)cc1`, the half-maximal inhibitory concentration (IC50) in the assay listed under Homo sapiens amounted to 0.0032 µg/mL (≈ 0.00903 µM). In the assay with Cavia porcellus [2], this compound had an inhibition in vivo at 1 mg/kg of 39%. Also, 5 mg/kg produced 96% inhibition in vivo in the assay with Cavia porcellus [3]. This compound also returned an inhibition in vivo at 10 mg/kg with Cavia porcellus [4] of 100%.

On to `CC(=O)Oc1ccccc1C(=O)O` [ASPIRIN], for which half-maximal inhibition in the assay filed under Homo sapiens (IC50) was put at 10 µg/mL (≈ 55.5 µM).

For the compound `COc1ccc(-c2nc(C(C)(C)CO)sc2-c2ccc(OC)cc2)cc1`, the IC50 in the assay filed under Homo sapiens stood at 0.0032 µg/mL (≈ 0.00866 µM); in the assay listed under Cavia porcellus [1], 0.01 µg/mL (≈ 0.0271 µM).

On to `COc1ccc(-c2ncsc2-c2ccc(OC)cc2)cc1`, for which, in the assay listed under Homo sapiens, the 50% inhibitory concentration (IC50) was 0.032 µg/mL (≈ 0.108 µM).

Compound `COC(=O)Cc1nc(-c2ccc(OC)cc2)c(-c2ccc(OC)cc2)s1` displayed an IC50 in the assay listed under Homo sapiens of 0.0001 µg/mL (≈ 0.000271 µM).

Regarding `COc1ccc(-c2nc(C(F)(F)F)sc2-c2ccc(OC)cc2)cc1` [ITAZIGREL], the inhibition in vivo at 5 mg/kg amounted to 93.2% in the assay with Cavia porcellus [5]; 10.3% with Cavia porcellus [7]; 0% in the assay with Cavia porcellus [8]; 16.2% in the assay on Cavia porcellus [10]; 48.7% in the assay with Cavia porcellus [11]; 97% in the assay on Cavia porcellus [12]. Moreover, the figures for the inhibition in vivo at 5 mg/kg with Cavia porcellus [3] and in the assay with Cavia porcellus [13] were 100% and 68.5%, respectively. Also, the inhibition in vivo at 0.1 mg/kg with Cavia porcellus [6] was found to be 6%. In addition, the IC50 was found to be 0.001 µg/mL (≈ 0.00274 µM) in the assay filed under Homo sapiens and 0.01 µg/mL (≈ 0.0274 µM) in the assay filed under Cavia porcellus [1]. Moreover, the inhibition in vivo at 0.5 mg/kg with Cavia porcellus [9] stood at 68.5%. This compound returned an inhibition in vivo at 1 mg/kg in the assay with Cavia porcellus [2] of 83%. The inhibition in vivo at 10 mg/kg in the assay on Cavia porcellus [4] was 100%.

For `COc1ccc(-c2nc(CC(=O)[O-])sc2-c2ccc(OC)cc2)cc1.[Li+]`, the midpoint of inhibition in the assay filed under Homo sapiens, the IC50, lay at 0.032 µg/mL.

On to `CC(C(=O)O)c1ccc(-c2ccccc2)c(F)c1` (centres undefined) [FLURBIPROFEN], for which the IC50 in the assay filed under Homo sapiens and in the assay listed under Cavia porcellus [1] was 0.32 µg/mL (≈ 1.31 µM) in each case.
